Laboratory results as given in PMC4540177 (Bioorganic & medicinal chemistry letters, 2013).

What was measured:
Mouse brain penetration = format: in vivo, C57Bl6 mice
Rat pharmacokinetics = format: in vivo, Sprague-Dawley rats

Compound	brain penetration (in words) (Mouse brain penetration)	half live (in words) (Rat pharmacokinetics; rat)	oral exposure (in words) (Rat pharmacokinetics; rat)	in vivo properties (in words) (Rat pharmacokinetics; rat pk)
Cc1ncn(-c2ccc(Nc3cc(-c4nocc4-c4cnn(C)c4)ccn3)cc2)n1 [Compound 27]	poor brain penetration	short half live	good oral exposure	–
Cc1ncn(-c2ccc(Nc3cc(-c4nocc4-c4cn[nH]c4C)ccn3)cc2)n1 [Compound 28]	–	–	–	poor in vivo properties
